In the NIST ThermoML archive (doi:10.1016/j.jct.2016.10.034):
± gives the expanded uncertainty stated by the source.

Test: xn = mol fraction of the nth substance listed
Settings: 100 kPa, Liquid; for mass density: Vibrating tube method; for viscosity: Falling or rolling sphere viscometry

CC[N+]1(C)CCCC1.O=C([O-])CO [1-ethyl-1-methylpyrrolidinium glycolate] + O
Settings | mass density [kg/m3] | viscosity [mPa·s]
323.15 K, x1 = 0.0541 | 1043.7 ± 1 | –
323.15 K, x1 = 0.1293 | 1083.3 ± 1 | –
323.15 K, x1 = 0.2024 | 1100.4 ± 1 | –
323.15 K, x1 = 0.2905 | 1109.6 ± 1 | –
323.15 K, x1 = 0.3464 | 1112.6 ± 1.1 | –
323.15 K, x1 = 0.4258 | 1115.2 ± 1.1 | –
323.15 K, x1 = 0.5357 | 1116.9 ± 1.2 | –
323.15 K, x1 = 0.6086 | 1117.5 ± 1.3 | –
323.15 K, x1 = 0.729 | 1118 ± 1.6 | –
323.15 K, x1 = 0.825 | 1117.9 ± 1.8 | –
323.15 K, x1 = 0.8839 | 1117.7 ± 2 | –
328.15 K, x1 = 0.0541 | 1040.6 ± 1 | –
328.15 K, x1 = 0.1293 | 1079.8 ± 1 | 4.34 ± 0.44
328.15 K, x1 = 0.2024 | 1096.8 ± 1 | 8.55 ± 0.86
328.15 K, x1 = 0.2905 | 1106.1 ± 1 | 13.9 ± 1.4
328.15 K, x1 = 0.3464 | 1109.2 ± 1.1 | 17.8 ± 1.8
328.15 K, x1 = 0.4258 | 1111.8 ± 1.1 | 23.3 ± 2.3
328.15 K, x1 = 0.5357 | 1113.6 ± 1.2 | 31.4 ± 3.2
328.15 K, x1 = 0.6086 | 1114.2 ± 1.3 | 37.2 ± 3.8
328.15 K, x1 = 0.729 | 1114.8 ± 1.6 | 46.8 ± 4.7
328.15 K, x1 = 0.825 | 1114.6 ± 1.8 | 55.7 ± 5.6
328.15 K, x1 = 0.8839 | 1114.5 ± 2 | 61.9 ± 6.3
333.15 K, x1 = 0.0541 | 1037.5 ± 1 | –
333.15 K, x1 = 0.1293 | 1076.2 ± 1 | 4.12 ± 0.41
333.15 K, x1 = 0.2024 | 1093.3 ± 1 | 7.54 ± 0.76
333.15 K, x1 = 0.2905 | 1102.6 ± 1 | 12.5 ± 1.3
333.15 K, x1 = 0.3464 | 1105.7 ± 1.1 | 15.5 ± 1.6
333.15 K, x1 = 0.4258 | 1108.5 ± 1.1 | 20 ± 2
333.15 K, x1 = 0.5357 | 1110.4 ± 1.2 | 26.5 ± 2.7
333.15 K, x1 = 0.6086 | 1111 ± 1.3 | 31.1 ± 3.1
333.15 K, x1 = 0.729 | 1111.5 ± 1.6 | 38.8 ± 3.9
333.15 K, x1 = 0.825 | 1111.4 ± 1.8 | 45.5 ± 4.6
333.15 K, x1 = 0.8839 | 1111.3 ± 2 | 49.9 ± 5.1
338.15 K, x1 = 0.0541 | 1034.3 ± 1 | –
338.15 K, x1 = 0.1293 | 1072.7 ± 1 | 3.87 ± 0.77
338.15 K, x1 = 0.2024 | 1089.7 ± 1 | 6.81 ± 0.68
338.15 K, x1 = 0.2905 | 1099.2 ± 1 | 10.6 ± 1.1
338.15 K, x1 = 0.3464 | 1102.4 ± 1.1 | 13.2 ± 1.3
338.15 K, x1 = 0.4258 | 1105.1 ± 1.1 | 16.8 ± 1.7
338.15 K, x1 = 0.5357 | 1107.1 ± 1.2 | 22.4 ± 2.3
338.15 K, x1 = 0.6086 | 1107.7 ± 1.3 | 26.1 ± 2.6
338.15 K, x1 = 0.729 | 1108.3 ± 1.6 | 32.6 ± 3.3
338.15 K, x1 = 0.825 | 1108.3 ± 1.8 | 38.1 ± 3.9
338.15 K, x1 = 0.8839 | 1108.2 ± 2 | 41.6 ± 4.2
343.15 K, x1 = 0.0541 | 1031.1 ± 1 | –
343.15 K, x1 = 0.1293 | 1069.1 ± 1 | 3.58 ± 0.72
343.15 K, x1 = 0.2024 | 1086.1 ± 1 | 5.96 ± 0.6
343.15 K, x1 = 0.2905 | 1095.7 ± 1 | 9.03 ± 0.91
343.15 K, x1 = 0.3464 | 1099 ± 1.1 | 11.2 ± 1.1
343.15 K, x1 = 0.4258 | 1101.8 ± 1.1 | 14.5 ± 1.5
343.15 K, x1 = 0.5357 | 1103.9 ± 1.2 | 19.2 ± 1.9
343.15 K, x1 = 0.6086 | 1104.6 ± 1.3 | 22.4 ± 2.3
343.15 K, x1 = 0.729 | 1105.2 ± 1.5 | 27.9 ± 2.8
343.15 K, x1 = 0.825 | 1105.1 ± 1.8 | 32.4 ± 3.3
343.15 K, x1 = 0.8839 | 1105.1 ± 2 | 35.3 ± 3.6
348.15 K, x1 = 0.0541 | 1027.6 ± 1.1 | –
348.15 K, x1 = 0.1293 | 1065.5 ± 1.1 | 3.55 ± 1.1
348.15 K, x1 = 0.2024 | 1082.6 ± 1 | 5.64 ± 0.57
348.15 K, x1 = 0.2905 | 1092.9 ± 1 | 7.83 ± 0.79
348.15 K, x1 = 0.3464 | 1095.6 ± 1.1 | 9.71 ± 0.98
348.15 K, x1 = 0.4258 | 1098.6 ± 1.1 | 12.5 ± 1.3
348.15 K, x1 = 0.5357 | 1100.7 ± 1.2 | 16.6 ± 1.7
348.15 K, x1 = 0.6086 | 1101.4 ± 1.3 | 19.3 ± 1.9
348.15 K, x1 = 0.729 | 1102.1 ± 1.5 | 24 ± 2.4
348.15 K, x1 = 0.825 | 1102 ± 1.8 | 27.7 ± 2.8
348.15 K, x1 = 0.8839 | 1102 ± 2 | 30.1 ± 3.1
